Tests used:
[1] = test system: BRAFV600E mouse melanoma transplants; settings: in vivo; cited from earlier work
[2] = test system: WM35-BR cells; experiment: Granzyme B (GrzB) uptake by WM35-BR cells; type: cell-based, human; settings: 10 μM overnight, then inactive GrzB one hour
Procedure: Cells were then stained with Aqua dead cell staining kit (Thermo Fischer Scientific) for 15 min at 4° C. fixed in fixation buffer (BD Cytofix/Cytoperm; Cat. no. 51-2090). Granzyme B antibody (Cat. no. 561142) or its isotype control (BD Bioscience; Cat. no. 555749) were used. Stained cells were run on LSR14. Data was analyzed by FlowJo software (Tree Star).

[3] = test system: WM983B-M6PR-KO cells; experiment: CTL assay (51Cr release), WM983B-M6PR-KO targets with TILs; type: cell-based, human; settings: WM983B-M6PR-KO treated ON with PLX4720
Procedure: For Chromium (^51Cr) release assays, 1×10^6 human melanoma cells were incubated with 100 μCi ^51Cr (Perkin-Elmer; Cat. no. NEZ030S001MC; 1 mCi/mL) at 37° C. for 60 minutes, washed 3 times with sterile PBS and plated into 96-well round-bottom plates at a cell density of 1×10^4 tumor target cells/well. Target cells were incubated with human CD8+ TILs in triplicates at the indicated effector/target ([…]) ratios in 200 μl culture medium at 37° C. in a humidified CO2 incubator. After incubation, plates were centrifuged, 50 μl supernatant was harvested from each well and ^51Cr release was measured using a gamma counter. The percent specific lysis was calculated as follows: 100×[(experimental release−spontaneous release)/(maximum release−spontaneous release)]. As controls, T cells isolated from blood of healthy donor were used.
To investigate if M6PR has a direct role in the increased uptake of GrzB induced by PLX4720, we generated a WM983B-M6PR-KO cell line lacking M6PR expression, using Crispr/Cas9 technology. Deletion of M6PR was confirmed by western blotting (FIG. 8A) and flow cytometry (FIG. 8B). WM983B and WM983B-M6PR-KO cells were cultured with DMSO or different concentrations of PLX4720. […] We evaluated expression of MHC class I, MHC class II, PDL1, and FasL on tumor cells with overexpression or deletion of M6PR.

[4] = test system: WM35 cells; experiment: CTL assay (51Cr release), WM35 targets with HLA-A2+ TIL; type: cell-based, human; settings: WM35 pretreated with PLX4720 O/N vs DMSO
Procedure: (OKT3) (eBioscience; Cat. no. 16-0037-81) in the presence of 29×10^6 irradiated (5000 rad) allogenic PBMC as feeder cells. TIL were cultured in 9.6 mL of REP Media I (comprised of RPMI 1640, 10% heat-inactivated human AB serum (Sigma-Aldrich; Cat. no. H4522), 55 μM 2-mercaptoethanol (Gibco; Cat. no. 21985-023), 10 mM HEPES Buffer (Corning; Cat. no. 30-060-C1)) and 10.7 mL AIM V (Gibco; Cat. no. 0870112-DK) supplemented with 6000 I.U./mL rhIL-2. On day 4.15 mL media was replaced with fresh media (50% AIM V and 50% REP I) containing 3000 I.U./mL rhIL-2. On day 7.15 mL media was removed and 15 mL of AIM V containing 3000 I.U./mL rhIL-2 was added to the culture. […] After 14 days, TIL were collected, counted and CD8+ TIL were isolated using EasySep™ Human CD8+ T Cell Enrichment Kit (Stem Cell Technologies; Cat. no. 19053) for further experiments.
For Chromium (^51Cr) release assays, 1×10^6 human melanoma cells were incubated with 100 μCi ^51Cr (Perkin-Elmer; Cat. no. NEZ030S001MC; 1 mCi/mL) at 37° C. for 60 minutes, washed 3 times with sterile PBS and plated into 96-well round-bottom plates at a cell density of 1×10^4 tumor target cells/well. […] After incubation, plates were centrifuged, 50 μl supernatant was harvested from each well and ^51Cr release was measured using a gamma counter. […]

[5] = test system: M6PR; experiment: IHC staining of M6PR in WM35 tumors in NOD/SCID mice; type: in vivo; settings: for tumor M6PR levels by immunohistochemistry: 50 mg/kg oral gavage
Procedure: In order to establish xenograft models, cultured WM35, WM35-BR, WM983B-BR-pAHygCMV2 and WM983B-BR-M6PR/IGF2R cells were harvested, suspended in sterile PBS, mixed in 2:1 ratio with Matrigel and injected subcutaneously into the left flank of mice (1-3×10^6 cells per mouse). PLX4720 was administered daily at dose 50 mg/kg for 10 days via oral gavage. As a control, mice treated with vehicle alone (2% DMSO, 50% PEG 300, 5% Tween 80) were used. Treatments were started when tumors were 0.5-0.8 cm in diameter.
Tumor tissues were harvested, fixed overnight with 4% paraformaldehyde (Electron Microscopy Science; Cat. no. 15710) at 4° C., embedded in paraffin blocks and 4-5 μm thick sections of the tissue were prepared and stained with polyclonal goat M6PR/IGF2R primary antibody (R&D Systems; Cat. no. AF2447; 5 μg/mL per samples) O/N at 4° C. Biotinylated 2nd antibody in 1:200 dilution was used for 30 min at RT followed by application of ABC solution ([…] and biotinylated horseradish peroxidase) for 30 min at RT. DAB 0.05% solution was applied for 3-4 min at RT. Hematoxylin was used for counterstaining the nucleus. Images were analyzed using Nis-Elements Ar (Advanced Research) Nikon 80i Upright Microscope with 40×N.A. objective. Each slide was scanned, images were manually captured at separate X, Y locations and a multipoint ND document was created point by point. A threshold value was defined for each image (for brown M6PR staining) using the single point selection tool. Results were exported to Excel for further analysis. (Acquisition Software: Nikon NIS-Elements Br (Basic research) 4.0, Camera Name: DS-Ri1-U3 40× Objective, Numerical Aperture: 0.95, Camera Settings: Format: 1280×1024 Fine, Exposure: ME 80 ms (−+0.0 EV))
Since hypoxia is an important component of the tumor microenvironment, we evaluated the effect of hypoxia on PLX4720-induced M6PR up-regulation. WM983B melanoma cells were exposed to 0.5% 02 during PLX4720 treatment. […] To understand the effect of PLX4720 on M6PR expression in vivo, WM35 tumor cells were injected s.c. into immune deficient NOD/SCID mice. When tumors reached 0.5-0.8 cm in diameter, mice were treated with vehicle or 50 mg/kg PLX4720 by oral gavage for 3 or 5 consecutive days.

[6] = test system: M6PR; experiment: Cell surface M6PR expression by flow cytometry in WM35 melanoma cells; type: cell-based, human
Procedure: Human studies were approved by The Wistar Institute IRB. Peripheral blood was collected from healthy volunteers after obtaining informed consent. Animal experiments were approved by The Wistar Institute Animal Care and Use Committee. The mice were kept under pathogen free conditions. Experiments were carried out using female NSG mice or female and male nonobese diabetic/severe combined immunodeficient (NOD/SCID) mice, obtained from the mouse facility of the Wistar Institute and Charles River Laboratories, respectively. WM35 human melanoma and HLA-matched human tumor infiltrating lymphocytes (TIL) were generated at H. Lee Moffitt Cancer Center and Research Institute, Tampa, Fla., USA). […] Louis, Mo.) and 1% Pen/Strep (Corning; Cat. no. 30-002-Cl) at 37° C., 5% CO2. PLX4720-resistant cells were kept in cell culture media supplemented with 1 μM PLX4720 to keep these cells resistant against the drug. 350 μg/mL Hygromycin B (Invitrogen; […] Tumor cell lines were tested for mycoplasma contamination by using Universal Mycoplasma detection kit (ATCC) regularly. […] Cat. no. […] Cat. no. S2673). Hypoxia (0.5% 02) was maintained using hypoxic chamber (BioSpherix). […] Cells were incubated with Aqua dead cell staining kit (Thermo Fischer Scientific; Cat. no. […] Cat. no. 565105; clone no. MEM-238) or its isotype (BD Biosciences; Cat. no. 557732; clone no. […] Data was analyzed by FlowJo software (Tree Star).

CCCS(=O)(=O)Nc1ccc(F)c(C(=O)c2c[nH]c3ncc(Cl)cc23)c1F [PLX4720]
CD8+T/FoxP3+CD4+ T cell ratio and NK cells [1]: robust increase in the CD8+T/FoxP3+CD4+ T cell ratio and in NK cells
tumor CCL2 expression [1]: decreased tumor CCL2 expression
tumor immunogenicity [1]: did not directly increase tumor immunogenicity
intracellular GrzB levels [2]: significantly higher amount of GrzB than DMSO treated cells
killing of tumor cells by TILs [3]: this effect was not observed
sensitivity to lysis by effector cells (TIL) [4]: more sensitive to the lysis by effector cells
tumor M6PR levels by immunohistochemistry ([5]; 3 days after start of the treatment): significant increase in tumor M6PR levels
tumor M6PR levels by immunohistochemistry ([5]; 5 days after start (2 days later)): further increased
tumor M6PR expression after finish of the treatment ([5]; 3 days after finish of the treatment): remained high
tumor M6PR expression after finish of the treatment ([5]; day 6 after finish): slight decrease
tumor M6PR expression after finish of the treatment ([5]; day 9 after finishing the treatment): returned to the pretreatment level
M6PR on the cell surface ([6]; 1 μM, 2.5, 5 or 10 μM PLX4720, within 6 hours): substantial dose-dependent up-regulation of M6PR on the cell surface
cell surface M6PR after overnight treatment ([6]; overnight): M6PR up-regulation was confirmed
